Test system: 485176-168-R4-J1-PDC complex spheroid growth
Assay: Anticancer human tumor 485176-168-R4-J1-PDC patient-derived pancreatic adenocarcinoma cell line growth inhibition [RAS]
Details: for IC50: curve of first compound; for viability, T/C: stronger effect = lower value; active = viability on the fitted dose curve at most 10% of control; inactive = the rest
Outline: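 Tumour cells grown as complex spheroids with HUVEC endothelial cells and mesenchymal stem cells, treated with RAS pathway inhibitor combinations. Each agent spans half-log steps from near clinical Cmax, or 10 microM where Cmax is unknown.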

[1] = second compound 0.0316 µM, first compound 0.0316 µM
[2] = second compound 0.0316 µM, first compound 0.1 µM
[3] = second compound 0.0316 µM, first compound 0.316 µM
[4] = second compound 0.0316 µM, first compound 1 µM
[5] = second compound 0.0316 µM, first compound 3.16 µM
[6] = second compound 0.0316 µM, first compound 10 µM
[7] = second compound 0.1 µM, first compound 0.0316 µM
[8] = second compound 0.1 µM, first compound 0.1 µM
[9] = second compound 0.1 µM, first compound 0.316 µM
[10] = second compound 0.1 µM, first compound 1 µM
[11] = second compound 0.1 µM, first compound 3.16 µM
[12] = second compound 0.1 µM, first compound 10 µM
[13] = second compound 0.316 µM, first compound 0.0316 µM
[14] = second compound 0.316 µM, first compound 0.1 µM
[15] = second compound 0.316 µM, first compound 0.316 µM
[16] = second compound 0.316 µM, first compound 1 µM
[17] = second compound 0.316 µM, first compound 3.16 µM
[18] = second compound 0.316 µM, first compound 10 µM
[19] = second compound 1 µM, first compound 0.0316 µM
[20] = second compound 1 µM, first compound 0.1 µM
[21] = second compound 1 µM, first compound 0.316 µM
[22] = second compound 1 µM, first compound 1 µM
[23] = second compound 1 µM, first compound 3.16 µM
[24] = second compound 1 µM, first compound 10 µM
[25] = second compound 3.16 µM, first compound 0.0316 µM
[26] = second compound 3.16 µM, first compound 0.1 µM
[27] = second compound 3.16 µM, first compound 0.316 µM
[28] = second compound 3.16 µM, first compound 1 µM
[29] = second compound 3.16 µM, first compound 3.16 µM
[30] = second compound 3.16 µM, first compound 10 µM
[31] = second compound 10 µM, first compound 0.0316 µM
[32] = second compound 10 µM, first compound 0.1 µM
[33] = second compound 10 µM, first compound 0.316 µM
[34] = second compound 10 µM, first compound 1 µM
[35] = second compound 10 µM, first compound 3.16 µM
[36] = second compound 10 µM, first compound 10 µM
[37] = second compound 0.00316 µM, first compound 0.0316 µM
[38] = second compound 0.00316 µM, first compound 0.1 µM
[39] = second compound 0.00316 µM, first compound 0.316 µM
[40] = second compound 0.00316 µM, first compound 1 µM
[41] = second compound 0.01 µM, first compound 0.0316 µM
[42] = second compound 0.01 µM, first compound 0.1 µM
[43] = second compound 0.01 µM, first compound 0.316 µM
[44] = second compound 0.01 µM, first compound 1 µM
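Note: spheroids exposed to compounds for seven days before readout.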
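Throughout, for viability, T/C: luminescence viability expressed relative to DMSO vehicle wells set as 100%.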

C[C@@H](NC(=O)c1ncnc(N)c1Cl)c1ncc(C(=O)Nc2cc(C(F)(F)F)c(Cl)cn2)s1 + C#Cc1c(F)ccc2cc(O)cc(-c3ncc4c(N5CC6CCC(C5)N6)nc(OCC56CCCN5CC(F)C6)nc4c3F)c12
> 10000 nM: IC50 (second compound 0.0316 µM) | IC50 (second compound 0.1 µM) | IC50 (second compound 0.316 µM) | IC50 (second compound 1 µM) | IC50 (second compound 3.16 µM) | IC50 (second compound 10 µM)
inactive: viability, T/C [1] 123% | viability, T/C [2] 101% | viability, T/C [3] 102% | viability, T/C [4] 78.9% | viability, T/C [5] 87.8% | viability, T/C [6] 58.8% | viability, T/C [7] 106% | viability, T/C [8] 100% | viability, T/C [9] 86.7% | viability, T/C [10] 81.7% | viability, T/C [11] 73.5% | viability, T/C [12] 62.1% | viability, T/C [13] 97.2% | viability, T/C [14] 86.3% | viability, T/C [15] 73% | viability, T/C [16] 84.1% | viability, T/C [17] 69.9% | viability, T/C [18] 63% | viability, T/C [19] 84.8% | viability, T/C [20] 81.8% | viability, T/C [21] 101% | viability, T/C [22] 75.3% | viability, T/C [23] 74.7% | viability, T/C [24] 57.2% | viability, T/C [25] 103% | viability, T/C [26] 96.8% | viability, T/C [27] 94.7% | viability, T/C [28] 80.5% | viability, T/C [29] 69.8% | viability, T/C [30] 63% | viability, T/C [31] 97.6% | viability, T/C [32] 87% | viability, T/C [33] 83.6% | viability, T/C [34] 80.3% | viability, T/C [35] 75% | viability, T/C [36] 58.1%

O=C(c1ccc(F)c(F)c1Nc1ccc(I)cc1F)N1CC(O)([C@@H]2CCCCN2)C1 + C=CC(=O)N1CCN(c2nc(OCC3CCCN3C)nc3c(F)c(-c4nc(N)cc(C)c4C(F)(F)F)c(Cl)cc23)C(C)C1
327 nM: IC50 (second compound 0.1 µM)
inactive: viability, T/C (second compound 0.00316 µM, first compound 0.00316 µM) 86% | viability, T/C (second compound 0.00316 µM, first compound 0.01 µM) 90.4% | viability, T/C [37] 72% | viability, T/C [38] 61.1% | viability, T/C [39] 47.1% | viability, T/C [40] 33% | viability, T/C (second compound 0.01 µM, first compound 0.00316 µM) 105% | viability, T/C (second compound 0.01 µM, first compound 0.01 µM) 80.9% | viability, T/C [41] 70.3% | viability, T/C [42] 61.9% | viability, T/C [43] 48.5% | viability, T/C [44] 30.9% | viability, T/C (second compound 0.0316 µM, first compound 0.00316 µM) 96.1% | viability, T/C (second compound 0.0316 µM, first compound 0.01 µM) 90.7% | viability, T/C [1] 77% | viability, T/C [2] 55.5% | viability, T/C [3] 47.4% | viability, T/C [4] 35.9% | viability, T/C (second compound 0.1 µM, first compound 0.00316 µM) 96.4% | viability, T/C (second compound 0.1 µM, first compound 0.01 µM) 82.5% | viability, T/C [7] 73.5% | viability, T/C [8] 69.2% | viability, T/C [9] 49.4% | viability, T/C [10] 34.4% | viability, T/C (second compound 0.316 µM, first compound 0.00316 µM) 90.6% | viability, T/C (second compound 0.316 µM, first compound 0.01 µM) 86.2% | viability, T/C [13] 84.1% | viability, T/C [14] 52.6% | viability, T/C [15] 49.2% | viability, T/C [16] 37.1% | viability, T/C (second compound 1 µM, first compound 0.00316 µM) 86.1% | viability, T/C (second compound 1 µM, first compound 0.01 µM) 72.9% | viability, T/C [19] 58% | viability, T/C [20] 70.8% | viability, T/C [21] 50.8% | viability, T/C [22] 36.6%
148 nM: IC50 (second compound 0.316 µM)
212 nM: IC50 (second compound 0.01 µM)
230 nM: IC50 (second compound 0.00316 µM)
324 nM: IC50 (second compound 1 µM)
195 nM: IC50 (second compound 0.0316 µM)

CC(=O)OC12COC1CC(O)C1(C)C(=O)C(O)C3=C(C)C(OC(=O)C(O)C(NC(=O)OC(C)(C)C)c4ccccc4)CC(O)(C(OC(=O)c4ccccc4)C21)C3(C)C (stereo not drawn) + C=CC(=O)N1CCN(c2nc(OCC3CCCN3C)nc3c(F)c(-c4nc(N)cc(C)c4C(F)(F)F)c(Cl)cc23)C(C)C1
< 31.6 nM: IC50 (second compound 0.00316 µM) | IC50 (second compound 0.01 µM) | IC50 (second compound 0.0316 µM) | IC50 (second compound 0.1 µM) | IC50 (second compound 0.316 µM) | IC50 (second compound 1 µM)
inactive: viability, T/C [37] 13.2% | viability, T/C [38] 9.9% | viability, T/C [39] 13.1% | viability, T/C [40] 11.3% | viability, T/C (second compound 0.00316 µM, first compound 3.16 µM) 15.8% | viability, T/C (second compound 0.00316 µM, first compound 10 µM) 18.9% | viability, T/C [41] 17% | viability, T/C [42] 12.3% | viability, T/C [43] 11.4% | viability, T/C [44] 11.7% | viability, T/C (second compound 0.01 µM, first compound 3.16 µM) 13.7% | viability, T/C (second compound 0.01 µM, first compound 10 µM) 16.3% | viability, T/C [1] 15.2% | viability, T/C [2] 13.6% | viability, T/C [3] 12% | viability, T/C [4] 15.1% | viability, T/C [5] 13.3% | viability, T/C [6] 17.9% | viability, T/C [7] 13.3% | viability, T/C [8] 13.8% | viability, T/C [9] 10.5% | viability, T/C [10] 11.3% | viability, T/C [11] 16.7% | viability, T/C [12] 17.9% | viability, T/C [13] 18.4% | viability, T/C [14] 13.3% | viability, T/C [15] 11.8% | viability, T/C [16] 9.75% | viability, T/C [17] 15.5% | viability, T/C [18] 19.4% | viability, T/C [19] 12.6% | viability, T/C [20] 9.69% | viability, T/C [21] 9.77% | viability, T/C [22] 9.87% | viability, T/C [23] 15.3% | viability, T/C [24] 18.2%

CC(Nc1ccc2c(c1)OCCn1cc(N3C(=O)OCC3C(F)F)nc1-2)C(N)=O (stereo not drawn) + C#Cc1c(F)ccc2cc(O)cc(-c3ncc4c(N5CC6CCC(C5)N6)nc(OCC56CCCN5CC(F)C6)nc4c3F)c12
inactive: viability, T/C [1] 97.5% | viability, T/C [2] 86.5% | viability, T/C [3] 91.8% | viability, T/C [4] 83.5% | viability, T/C [5] 59.1% | viability, T/C [6] 65.4% | viability, T/C [7] 114% | viability, T/C [8] 98.6% | viability, T/C [9] 71.9% | viability, T/C [10] 70.8% | viability, T/C [11] 69.4% | viability, T/C [12] 50% | viability, T/C [13] 92.5% | viability, T/C [14] 75% | viability, T/C [15] 88.8% | viability, T/C [16] 79.4% | viability, T/C [17] 75.3% | viability, T/C [18] 54.8% | viability, T/C [19] 107% | viability, T/C [20] 81.1% | viability, T/C [21] 85.8% | viability, T/C [22] 90.5% | viability, T/C [23] 78% | viability, T/C [24] 56.6% | viability, T/C [25] 107% | viability, T/C [26] 94.2% | viability, T/C [27] 85.8% | viability, T/C [28] 79.9% | viability, T/C [29] 53.4% | viability, T/C [30] 56.5% | viability, T/C [31] 91.7% | viability, T/C [32] 88.9% | viability, T/C [33] 67.7% | viability, T/C [34] 71.4% | viability, T/C [35] 72.1% | viability, T/C [36] 44%
> 10000 nM: IC50 (second compound 0.0316 µM) | IC50 (second compound 0.1 µM) | IC50 (second compound 0.316 µM) | IC50 (second compound 1 µM) | IC50 (second compound 3.16 µM) | IC50 (second compound 10 µM)
